Reference: patent US10350271B2, “Lipidated peptides for lowering blood glucose” (USTAV ORGANICKE CHEMIE A BIOCHEMIE AKADEMIE VED CR, V.V.I., priority 2014, dated 2019)
Square brackets hold non-standard residues; d marks the D form. Peptide text beside a SMILES is read from it. * marks the point of attachment. Phe(4-NO2) = N[C@@H](Cc1ccc([N+](=O)[O-])cc1)C(=O)O; Phe(3,4-Cl2) = N[C@@H](Cc1ccc(Cl)c(Cl)c1)C(=O)O; 1Nal = N[C@@H](Cc1cccc2ccccc12)C(=O)O; Stearoyl = CCCCCCCCCCCCCCCCCC(=O)*; Palmitoyl = CCCCCCCCCCCCCCCC(=O)*; Myristoyl = CCCCCCCCCCCCCC(=O)*; Nle = CCCC[C@H](N)C(=O)O

Columns and labels:
[1] = test system: C57BL/6 mice; assay: Food intake in fasted mice after SC injection; type: in vivo; conditions: 5 mg/kg SC, 45 min after injection
Outline: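 Overnight-fasted animals (food removed 17 h before dosing, water available) in individual cages got saline, PrRP or lipidated PrRP analogs SC at 1-10 mg/kg.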

[2] = target: T1, rat PrRP receptor (Rattus norvegicus, UniProt Q64121); assay: Competitive binding in RC-4B/C rat pituitary cells (125I-rat PrRP31); conditions: for % of PrRP31, RC-4B/C rat pituitary cells: affinity relative to PrRP31; for Ki: RC-4B/C cells, displacement of 125I-rat PrRP31, read-out: Ki, RC-4B/C rat pituitary cells ^25I-rat PrRP31
T1 construct: host or cells: RC-4B/C rat pituitary cell line
T1 sequence (Q64121 1-370): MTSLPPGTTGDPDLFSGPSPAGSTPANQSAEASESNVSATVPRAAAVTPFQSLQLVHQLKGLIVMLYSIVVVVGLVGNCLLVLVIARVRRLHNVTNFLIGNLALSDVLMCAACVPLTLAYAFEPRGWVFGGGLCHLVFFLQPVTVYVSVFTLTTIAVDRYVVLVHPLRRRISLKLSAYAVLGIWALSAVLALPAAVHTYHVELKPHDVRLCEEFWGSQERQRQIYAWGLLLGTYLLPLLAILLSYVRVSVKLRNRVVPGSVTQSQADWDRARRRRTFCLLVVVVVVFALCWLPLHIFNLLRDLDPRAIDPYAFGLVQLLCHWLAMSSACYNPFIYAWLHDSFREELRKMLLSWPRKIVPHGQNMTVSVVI
Outline: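 Intact rat pituitary RC-4B/C cells incubated 60 min at room temperature with […] rat 125I-PrRP31 and unlabeled analog (10^−11 to 10^−4 mol·l^−1) in HEPES pH 7.4 buffer. Cell-bound radioactivity γ-counted after NaOH lysis; one-site competition fit.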

[3] = target: T2, human PrRP receptor GPR10 (Homo sapiens, UniProt P49683); assay: Competitive binding in CHO cells transfected with human GPR10 (human 125I-PrRP31); conditions: for % of PrRP31, GPR10 human receptor transfected in CHO cells: affinity relative to PrRP31; for Ki: CHO cells, human 125I-PrRP31, read-out: Ki, GPR10 human receptor transfected in CHO cells
T2 construct: host or cells: CHO cells
T2 sequence (P49683 1-370): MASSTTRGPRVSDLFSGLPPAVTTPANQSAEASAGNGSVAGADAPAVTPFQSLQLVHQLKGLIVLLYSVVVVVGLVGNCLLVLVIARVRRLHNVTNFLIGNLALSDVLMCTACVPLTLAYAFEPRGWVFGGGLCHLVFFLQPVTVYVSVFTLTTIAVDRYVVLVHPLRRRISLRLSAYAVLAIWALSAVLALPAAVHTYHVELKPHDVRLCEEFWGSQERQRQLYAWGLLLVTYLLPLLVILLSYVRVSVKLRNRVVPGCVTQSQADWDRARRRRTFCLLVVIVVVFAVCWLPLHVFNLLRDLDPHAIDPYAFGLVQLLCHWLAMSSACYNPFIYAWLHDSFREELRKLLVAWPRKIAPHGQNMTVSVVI
Outline: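 GPR10-transfected CHO cells (40-80 thousand/well) incubated 60 min at room temperature with 5×10^-11 mol·l^-1 human 125I-PrRP31 and unlabeled analog at 10^-11 to 10^-4 mol·l^-1 in Tris binding buffer pH 7.4. Cells solubilized in 0.1 mol/l NaOH, γ-counted; one-site nonlinear regression fit.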

SMILES	Food intake in mice % of saline-treated group [1]	% of PrRP31, RC-4B/C rat pituitary cells [2]	% of PrRP31, GPR10 human receptor transfected in CHO cells [3]	Ki [2]	Ki [3]
CCCCCCCCCCCCCCCCCC(=O)N[C@@H](CO)C(=O)N[C@@H](CCCNC(=N)N)C(=O)N[C@@H](C)C(=O)N[C@@H](Cc1c[nH]cn1)C(=O)N[C@@H](CCC(N)=O)C(=O)N[C@@H](Cc1c[nH]cn1)C(=O)N[C@@H](CO)C(=O)N[C@@H](CCCC)C(=O)N[C@@H](CCC(=O)O)C(=O)N[C@H](C(=O)N[C@@H](CCCNC(=N)N)C(=O)N[C@H](C(=O)N1CCC[C@H]1C(=O)N[C@@H](CC(=O)O)C(=O)N[C@H](C(=O)N[C@@H](CC(N)=O)C(=O)N1CCC[C@H]1C(=O)N[C@@H](C)C(=O)N[C@@H](Cc1c[nH]c2ccccc12)C(=O)N[C@@H](Cc1ccc(O)cc1)C(=O)N[C@H](C(=O)NCC(=O)N[C@@H](CCCNC(=N)N)C(=O)NCC(=O)N[C@H](C(=O)N[C@@H](CCCNC(=N)N)C(=O)N1CCC[C@H]1C(=O)N[C@H](C(=O)NCC(=O)N[C@@H](CCCNC(=N)N)C(=O)N[C@@H](Cc1ccccc1)C(N)=O)C(C)C)[C@@H](C)CC)[C@@H](C)O)[C@@H](C)CC)[C@@H](C)O)[C@@H](C)O [Analog 9] (Stearoyl-SRAHQHS[Nle]ETRTPDINPAWYTGRGIRPVGRF-NH2)	3.5%	514%	7%		
CCCCCCCCCCCCCCCC(=O)N[C@@H](CO)C(=O)N[C@@H](CCCNC(=N)N)C(=O)N[C@@H](C)C(=O)N[C@@H](Cc1c[nH]cn1)C(=O)N[C@@H](CCC(N)=O)C(=O)N[C@@H](Cc1c[nH]cn1)C(=O)N[C@@H](CO)C(=O)N[C@@H](CCCC)C(=O)N[C@@H](CCC(=O)O)C(=O)N[C@H](C(=O)N[C@@H](CCCNC(=N)N)C(=O)N[C@H](C(=O)N1CCC[C@H]1C(=O)N[C@@H](CC(=O)O)C(=O)N[C@H](C(=O)N[C@@H](CC(N)=O)C(=O)N1CCC[C@H]1C(=O)N[C@@H](C)C(=O)N[C@@H](Cc1c[nH]c2ccccc12)C(=O)N[C@@H](Cc1ccc(O)cc1)C(=O)N[C@H](C(=O)NCC(=O)N[C@@H](CCCNC(=N)N)C(=O)NCC(=O)N[C@H](C(=O)N[C@@H](CCCNC(=N)N)C(=O)N1CCC[C@H]1C(=O)N[C@H](C(=O)NCC(=O)N[C@@H](CCCNC(=N)N)C(=O)N[C@@H](Cc1cccc2ccccc12)C(N)=O)C(C)C)[C@@H](C)CC)[C@@H](C)O)[C@@H](C)CC)[C@@H](C)O)[C@@H](C)O [Analog 12] (Palmitoyl-SRAHQHS[Nle]ETRTPDINPAWYTGRGIRPVGR[1Nal]-NH2)	13%	111%	91%		
CCCCCCCCCCCCCC(=O)N[C@@H](CO)C(=O)N[C@@H](CCCNC(=N)N)C(=O)N[C@@H](C)C(=O)N[C@@H](Cc1c[nH]cn1)C(=O)N[C@@H](CCC(N)=O)C(=O)N[C@@H](Cc1c[nH]cn1)C(=O)N[C@@H](CO)C(=O)N[C@@H](CCCC)C(=O)N[C@@H](CCC(=O)O)C(=O)N[C@H](C(=O)N[C@@H](CCCNC(=N)N)C(=O)N[C@H](C(=O)N1CCC[C@H]1C(=O)N[C@@H](CC(=O)O)C(=O)N[C@H](C(=O)N[C@@H](CC(N)=O)C(=O)N1CCC[C@H]1C(=O)N[C@@H](C)C(=O)N[C@@H](Cc1c[nH]c2ccccc12)C(=O)N[C@@H](Cc1ccc(O)cc1)C(=O)N[C@H](C(=O)NCC(=O)N[C@@H](CCCNC(=N)N)C(=O)NCC(=O)N[C@H](C(=O)N[C@@H](CCCNC(=N)N)C(=O)N1CCC[C@H]1C(=O)N[C@H](C(=O)NCC(=O)N[C@@H](CCCNC(=N)N)C(=O)N[C@@H](Cc1ccc(Cl)c(Cl)c1)C(N)=O)C(C)C)[C@@H](C)CC)[C@@H](C)O)[C@@H](C)CC)[C@@H](C)O)[C@@H](C)O [Analog 14] (Myristoyl-SRAHQHS[Nle]ETRTPDINPAWYTGRGIRPVGR[Phe(3,4-Cl2)]-NH2)	13%	275%	409%	1.79 ± 1.02 nM	0.95 ± 0.33 nM
CCCCCCCCCCCCCCCC(=O)N[C@@H](CO)C(=O)N[C@@H](CCCNC(=N)N)C(=O)N[C@@H](C)C(=O)N[C@@H](Cc1c[nH]cn1)C(=O)N[C@@H](CCC(N)=O)C(=O)N[C@@H](Cc1c[nH]cn1)C(=O)N[C@@H](CO)C(=O)N[C@@H](CCCC)C(=O)N[C@@H](CCC(=O)O)C(=O)N[C@H](C(=O)N[C@@H](CCCNC(=N)N)C(=O)N[C@H](C(=O)N1CCC[C@H]1C(=O)N[C@@H](CC(=O)O)C(=O)N[C@H](C(=O)N[C@@H](CC(N)=O)C(=O)N1CCC[C@H]1C(=O)N[C@@H](C)C(=O)N[C@@H](Cc1c[nH]c2ccccc12)C(=O)N[C@@H](Cc1ccc(O)cc1)C(=O)N[C@H](C(=O)NCC(=O)N[C@@H](CCCNC(=N)N)C(=O)NCC(=O)N[C@H](C(=O)N[C@@H](CCCNC(=N)N)C(=O)N1CCC[C@H]1C(=O)N[C@H](C(=O)NCC(=O)N[C@@H](CCCNC(=N)N)C(=O)N[C@@H](Cc1ccc(Cl)c(Cl)c1)C(N)=O)C(C)C)[C@@H](C)CC)[C@@H](C)O)[C@@H](C)CC)[C@@H](C)O)[C@@H](C)O [Analog 15] (Palmitoyl-SRAHQHS[Nle]ETRTPDINPAWYTGRGIRPVGR[Phe(3,4-Cl2)]-NH2)	5%	379%	370%	1.3 ± 0.29 nM	1.05 ± 0.41 nM
CCCCCCCCCCCCCCCC(=O)N[C@@H](CO)C(=O)N[C@@H](CCCNC(=N)N)C(=O)N[C@@H](C)C(=O)N[C@@H](Cc1c[nH]cn1)C(=O)N[C@@H](CCC(N)=O)C(=O)N[C@@H](Cc1c[nH]cn1)C(=O)N[C@@H](CO)C(=O)N[C@@H](CCCC)C(=O)N[C@@H](CCC(=O)O)C(=O)N[C@H](C(=O)N[C@@H](CCCNC(=N)N)C(=O)N[C@H](C(=O)N1CCC[C@H]1C(=O)N[C@@H](CC(=O)O)C(=O)N[C@H](C(=O)N[C@@H](CC(N)=O)C(=O)N1CCC[C@H]1C(=O)N[C@@H](C)C(=O)N[C@@H](Cc1c[nH]c2ccccc12)C(=O)N[C@@H](Cc1ccc(O)cc1)C(=O)N[C@H](C(=O)NCC(=O)N[C@@H](CCCNC(=N)N)C(=O)NCC(=O)N[C@H](C(=O)N[C@@H](CCCNC(=N)N)C(=O)N1CCC[C@H]1C(=O)N[C@H](C(=O)NCC(=O)N[C@@H](CCCNC(=N)N)C(=O)N[C@@H](Cc1ccc([N+](=O)[O-])cc1)C(N)=O)C(C)C)[C@@H](C)CC)[C@@H](C)O)[C@@H](C)CC)[C@@H](C)O)[C@@H](C)O [Analog 18] (Palmitoyl-SRAHQHS[Nle]ETRTPDINPAWYTGRGIRPVGR[Phe(4-NO2)]-NH2)	0.7%	850%	505%	0.58 ± 0.1 nM	0.77 ± 0.28 nM
CCCCCCCCCCCCCC(=O)N[C@@H](CO)C(=O)N[C@@H](Cc1c[nH]cn1)C(=O)N[C@@H](CCC(N)=O)C(=O)N[C@@H](CCCNC(=N)N)C(=O)N1CCC[C@H]1C(=O)N[C@@H](C)C(=O)N[C@@H](CC(=O)O)C(=O)N[C@H](C(=O)N[C@@H](Cc1c[nH]cn1)C(=O)N[C@@H](Cc1c[nH]c2ccccc12)C(=O)N[C@@H](Cc1ccc(O)cc1)C(=O)N1CCC[C@H]1C(=O)N[C@@H](CCCNC(=N)N)C(=O)NCC(=O)N[C@@H](CCCC)C(=O)N[C@@H](Cc1ccccc1)C(=O)N1CCC[C@H]1C(=O)N[C@H](C(=O)N[C@H](C(=O)NCC(=O)N[C@@H](CCCNC(=N)N)C(=O)N[C@H](C(=O)N[C@H](C(=O)N[C@@H](C)C(=O)N[C@@H](CCCNC(=N)N)C(=O)N[C@@H](CC(N)=O)C(=O)NCC(=O)N[C@@H](CCC(=O)O)C(=O)N[C@H](C(=O)N[C@@H](CO)C(=O)N[C@@H](CCCNC(=N)N)C(=O)O)C(C)C)[C@@H](C)O)[C@@H](C)CC)[C@@H](C)CC)[C@@H](C)O)[C@@H](C)O [Analog 20] (Myristoyl-SHQRPADTHWYPRG[Nle]FPTIGRITARNGEVSR-OH; C-terminus assumed)	100%	4.6%	1.5%	123 ± 16.1 nM	262 ± 55.4 nM
